Reference: the SangsterLogP compilation

Legend:
[1] = method code SF, from DOI: 10.2307/3575799, PMID: 7199747; details: pH 7.4
[2] = method code SF-AS, from DOI: 10.2307/3575799, PMID: 7199747; details: pH 7.4

| logD [1] | logD [2] | SMILES |
| --- | --- | --- |
| -1.77 | – | O=C(Cn1ccnc1[N+](=O)[O-])NC(CO)(CO)CO |
| -1.59 | – | O=C(Cn1ccnc1[N+](=O)[O-])N(CCO)CCO |
| -1.64 | – | CC(C(=O)NCC(O)CO)n1ccnc1[N+](=O)[O-] (stereo not given) |
| 0.44 | – | CCC(=O)OCCN(CCOC(=O)CC)C(=O)Cn1ccnc1[N+](=O)[O-] |
| – | -0.64 | CC(=O)OCCN(CCOC(C)=O)C(=O)Cn1ccnc1[N+](=O)[O-] |
| -1.16 | – | CC(C(=O)NCCO)n1ccnc1[N+](=O)[O-] (stereo not given) |
| – | -0.96 | CC(O)CN(CC(C)O)C(=O)Cn1ccnc1[N+](=O)[O-] (stereo not given) |
| -1.66 | – | O=COCCN(CCOC=O)C(=O)Cn1ccnc1[N+](=O)[O-] |
| -1.22 | – | NC(=O)Cn1ccnc1[N+](=O)[O-] |
| – | -0.77 | CC(=O)OCC(CNC(=O)Cn1ccnc1[N+](=O)[O-])OC(C)=O (stereo not given) |
